In patent publication US20070105721A1, “Vinylogous 4-Hpyrones and their use in promoting plant growth” (priority 2003, published 2007):

How the values were obtained:
Type in all cases: in vivo
[1] = tested on: Grand Rapids Lettuce seeds (Waltham strain); assay: Grand Rapids bioassay; details: for Germination, Grand Rapids: compounds isolated from smoke, mean (SEM)
Experimental: Grand Rapids Lettuce seeds (Waltham strain) were obtained from R.B. Dessert Seed Co. and were frozen in sachets until use. For testing of aqueous samples, 2.5 mL of test solution was applied to three replicates of 40-50 seeds in Petri dishes (90 mm) lined with two layers of Whatman No. 1 filter paper (7 cm). Millipore filtered water (MP water) was used as a control for each experiment and dilutions of each sample were used to ensure the optimum concentration range for activity. Fractions were reconstituted to their original concentration (before fractionation) and dilutions were made using MP water. Petri dishes were sealed with a layer of plastic wrap, and stored in a light proof container. All manipulations involving the seed were carried out in a dark room and germinants, based on the appearance of a radicle, were scored after 48 hours incubation.

[2] = tested on: Conostylis aculeata seeds; assay: Native bioassay; details: compounds isolated from smoke; mean (SEM)
Experimental: (§1) Conostylis aculeata and Stylidium affine seeds were obtained from Nindethana seed service and stored before use. For testing of aqueous samples, three replicates of 20-30 sterilised seeds were added to UV sterilised petri dishes (90 mm), containing two Whatman No. 1 filter papers (7 cm) moistened with the filtered test solution (2.5 mL, 0.22 μm). MP water was used as a control for each experiment and dilutions of each sample were used to ensure the optimum concentration range for activity. Petri dishes were then sealed with parafilm and incubated in the dark at 20±1° C. The seeds were scored on a weekly basis with optimum germination achieved between 4-6 weeks.

Stylidium affine seeds = assay: Native bioassay; details: compounds isolated from smoke; mean (SEM)
Experimental: as §1

[3] = 100 ppm, * = inhibits germination at this concentration

SMILES	Germination of formula (5) analogues ([1]; 1 ppm)	Germination of formula (5) analogues ([1]; 10 ppm)	Germination of formula (5) analogues ([1]; 100 ppb)	Germination of formula (5) analogues [1, 3]	Germination, Grand Rapids [1]	Germination, Conostylis aculeata [2]	Germination, Stylidium affine (Stylidium affine seeds)
CCOC(=O)C=C1C=COC=C1 [Compound 5a, ethyl 2-(4H-pyran-4-ylidene) acetate]	86.7 (±7.4)	94.7 (±0.4)	66.9 (±10.2)	99.1 (±0.9)			
CCOC(=O)C(SC(C)=O)=C1C=COC=C1 [Compound 5b, ethyl 2-(acetylthio)-2-(4H-pyran-4-ylidene) acetate]	64.7 (±4.5)	82.6 (±3.4)	54.3 (±7.2)	*39.4 (±2.7)			
CC1=CC(=CC(=O)c2ccccc2)C=C(C)O1 [Compound 5c, 2-(2,6-dimethyl-4H-pyran-4-ylidene)-1-phenylethanone]	54.3 (±3.1)	69.3 (±4.4)	53.2 (±4.1)	74.1 (±6.7)			
O=C1C=C(c2ccco2)CO1 [Compound L-1, 2,3′-bifuran-5′(2′H)-one]					42.4 (6.6) %	7.5 (1.3) %	0%
Cc1cc(=O)oc2ccoc12 [Compound L-3, 7-methyl-5H-furo[3,2-b]pyran-5-one]					42.1 (1.5) %	11.6 (2.5) %	0%
